Results reported in PubChem BioAssay (NCI).
Values joined by “and” are separate entries in the source; they are usually repeats but may differ in a detail not shown here. Equal values may be shown once.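 A five-concentration, 48-hour dose response in 96-well plates underlies each endpoint, interpolated linearly between surrounding concentrations. Abbreviation: GI50, concentration required for 50% inhibition of growth. TGI marks complete inhibition of growth.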

Key:
Experiment in all cases: inhibition of tumour cell growth, NCI panel, 48 h
[1] = tested on: 786-0 renal
[2] = tested on: A498 renal
[3] = tested on: A549 NSCLC
[4] = tested on: ACHN renal
[5] = tested on: BT-549 breast
[6] = tested on: CAKI-1 renal
[7] = tested on: CCRF-CEM leukemia
[8] = tested on: COLO 205 colon
[9] = tested on: DU-145 prostate
[10] = tested on: EKVX NSCLC
[11] = tested on: HCC-2998 colon
[12] = tested on: HCT-116 colon
[13] = tested on: HCT-15 colon
[14] = tested on: HOP-62 NSCLC
[15] = tested on: HOP-92 NSCLC
[16] = tested on: HS 578T breast
[17] = tested on: HT29 colon
[18] = tested on: IGROV1 ovarian
[19] = tested on: KM12 colon
[20] = tested on: LOX IMVI melanoma
[21] = tested on: M14 melanoma
[22] = tested on: MALME-3M melanoma
[23] = tested on: MCF7 breast
[24] = tested on: MDA-MB-231 breast
[25] = tested on: MDA-MB-435
[26] = tested on: MDA-N
[27] = tested on: MOLT-4 leukemia
[28] = tested on: NCI-H23 lung
[29] = tested on: NCI-H460 lung
[30] = tested on: NCI-H522 lung
[31] = tested on: NCI/ADR-RES ovarian
[32] = tested on: OVCAR-3 ovarian
[33] = tested on: OVCAR-4 ovarian
[34] = tested on: OVCAR-5 ovarian
[35] = tested on: OVCAR-8 ovarian
[36] = tested on: PC-3 prostate
[37] = tested on: RPMI-8226 leukemia
[38] = tested on: RXF 393 renal
[39] = tested on: SF-268 CNS
[40] = tested on: SF-295 CNS
[41] = tested on: SF-539 CNS
[42] = tested on: SK-MEL-2 melanoma
[43] = tested on: SK-MEL-28 melanoma
[44] = tested on: SK-OV-3 ovarian
[45] = tested on: SN12C renal
[46] = tested on: SNB-19 CNS
[47] = tested on: SNB-75 CNS
[48] = tested on: SW-620 colon
[49] = tested on: T-47D breast
[50] = tested on: TK-10 renal
[51] = tested on: U251 CNS
[52] = tested on: UACC-257 melanoma
[53] = tested on: UACC-62 melanoma
[54] = tested on: UO-31 renal
[55] = tested on: K-562 leukemia
[56] = tested on: NCI-H226 lung
[57] = tested on: SK-MEL-5 melanoma
[58] = tested on: SR leukemia
[59] = tested on: HL-60(TB) leukemia

CN(C)c1ccc(/C=C2\N=C(NNc3ccccc3)NC2=O)cc1
TGI [1]: 50.2 µM
TGI [2]: 42.1 µM
TGI [3]: > 100 µM
TGI [4]: 61.9 µM
TGI [5]: 83.2 µM
TGI [6]: > 100 µM
TGI [7]: > 100 µM
TGI [8]: 29 µM
TGI [9]: > 100 µM
TGI [10]: 68.1 µM
TGI [11]: 30.9 µM
TGI [12]: > 100 µM
TGI [13]: > 100 µM
TGI [14]: > 100 µM
TGI [15]: 51.3 µM
TGI [16]: > 100 µM
TGI [17]: > 100 µM
TGI [18]: 80.6 µM
TGI [19]: 32.6 µM
TGI [20]: 92.4 µM
TGI [21]: > 100 µM
TGI [22]: > 100 µM
TGI [23]: 41.9 µM
TGI [24]: 40.1 µM
TGI [25]: 59.1 µM
TGI [26]: > 100 µM
TGI [27]: > 100 µM
TGI [28]: 65.3 µM
TGI [29]: 52.7 µM
TGI [30]: 57.1 µM
TGI [31]: > 100 µM
TGI [32]: 35 µM
TGI [33]: > 100 µM
TGI [34]: > 100 µM
TGI [35]: > 100 µM
TGI [36]: 29.3 µM
TGI [37]: 40.1 µM
TGI [38]: 78.9 µM
TGI [39]: > 100 µM
TGI [40]: 83.4 µM
TGI [41]: 43.3 µM
TGI [42]: 44 µM
TGI [43]: 71.4 µM
TGI [44]: > 100 µM
TGI [45]: 44.6 µM
TGI [46]: > 100 µM
TGI [47]: 78.9 µM
TGI [48]: 82.3 µM
TGI [49]: 38.8 µM
TGI [50]: 67.2 µM
TGI [51]: 27.3 µM
TGI [52]: 38.5 µM
TGI [53]: > 100 µM
TGI [54]: > 100 µM

Cc1cnc2sn(-c3ccc([N+](=O)[O-])cc3)c(=O)c2c1
TGI [1]: > 100 µM
TGI [3]: > 100 µM
TGI [4]: > 100 µM
TGI [5]: > 100 µM
TGI [8]: > 100 µM
TGI [9]: > 100 µM
TGI [10]: > 100 µM
TGI [11]: > 100 µM
TGI [12]: > 100 µM
TGI [13]: > 100 µM
TGI [14]: 52.4 µM
TGI [15]: > 100 µM
TGI [16]: > 100 µM
TGI [17]: > 100 µM
TGI [18]: > 100 µM
TGI [55]: > 100 µM
TGI [19]: > 100 µM
TGI [20]: > 100 µM
TGI [21]: > 100 µM
TGI [22]: > 100 µM
TGI [23]: > 100 µM
TGI [24]: > 100 µM
TGI [25]: > 100 µM
TGI [26]: > 100 µM
TGI [27]: > 100 µM
TGI [56]: > 100 µM
TGI [28]: > 100 µM
TGI [29]: > 100 µM
TGI [30]: > 100 µM
TGI [31]: > 100 µM
TGI [32]: > 100 µM
TGI [33]: > 100 µM
TGI [34]: > 100 µM
TGI [35]: > 100 µM
TGI [36]: > 100 µM
TGI [37]: > 100 µM
TGI [39]: > 100 µM
TGI [40]: > 100 µM
TGI [42]: > 100 µM
TGI [43]: > 100 µM
TGI [57]: > 100 µM
TGI [44]: 81.4 µM
TGI [45]: > 100 µM
TGI [46]: > 100 µM
TGI [47]: 51.6 µM
TGI [58]: > 100 µM
TGI [48]: > 100 µM
TGI [49]: > 100 µM
TGI [50]: > 100 µM
TGI [51]: > 100 µM
TGI [53]: > 100 µM
TGI [54]: > 100 µM

C#C/C=C\CCCC/C=C\C#CC#CCCCC#CC#C[C@H](COS(=O)(=O)O)OS(=O)(=O)O
TGI [1]: > 100 µM
TGI [3]: > 100 µM
TGI [4]: > 100 µM
TGI [5]: > 100 µM
TGI [6]: > 100 µM
TGI [7]: > 100 µM
TGI [8]: > 100 µM
TGI [9]: > 100 µM
TGI [10]: > 100 µM
TGI [11]: > 100 µM
TGI [12]: > 100 µM
TGI [13]: > 100 µM
TGI [59]: > 100 µM
TGI [14]: > 100 µM
TGI [15]: > 100 µM
TGI [16]: > 100 µM
TGI [17]: > 100 µM
TGI [18]: > 100 µM
TGI [19]: > 100 µM
TGI [20]: > 100 µM
TGI [21]: > 100 µM
TGI [23]: > 100 µM
TGI [24]: > 100 µM
TGI [25]: > 100 µM
TGI [26]: > 100 µM
TGI [27]: > 100 µM
TGI [28]: > 100 µM
TGI [29]: > 100 µM
TGI [30]: > 100 µM
TGI [31]: > 100 µM
TGI [32]: > 100 µM
TGI [33]: > 100 µM
TGI [34]: > 100 µM
TGI [35]: > 100 µM
TGI [36]: > 100 µM
TGI [37]: > 100 µM
TGI [39]: > 100 µM
TGI [40]: > 100 µM
TGI [41]: > 100 µM
TGI [42]: > 100 µM
TGI [43]: > 100 µM
TGI [57]: > 100 µM
TGI [45]: > 100 µM
TGI [46]: > 100 µM
TGI [47]: > 100 µM
TGI [58]: > 100 µM
TGI [48]: > 100 µM
TGI [49]: > 100 µM
TGI [50]: > 100 µM
TGI [51]: > 100 µM
TGI [52]: > 100 µM
TGI [53]: > 100 µM
TGI [54]: > 100 µM

COC(=O)C1C(O)CCC2CN3CCc4c([nH]c5ccccc45)C3CC21 (stereo unspecified)
TGI [1]: > 100 µM
TGI [2]: > 100 µM
TGI [3]: > 100 µM
GI50 [4]: > 100 µM
TGI [4]: > 100 µM
TGI [5]: > 100 µM
GI50 [6]: > 100 µM
TGI [6]: > 100 µM
TGI [8]: > 100 µM
TGI [9]: > 100 µM
TGI [10]: > 100 µM
TGI [11]: > 100 µM
TGI [12]: > 100 µM
TGI [13]: > 100 µM
GI50 [14]: > 100 µM
TGI [14]: > 100 µM
TGI [15]: > 100 µM
TGI [16]: > 100 µM
TGI [17]: > 100 µM
TGI [18]: > 100 µM
TGI [55]: > 100 µM
TGI [19]: > 100 µM
TGI [20]: > 100 µM
TGI [21]: > 100 µM
TGI [22]: > 100 µM
TGI [23]: > 100 µM
TGI [24]: > 100 µM
TGI [25]: > 100 µM
TGI [26]: > 100 µM
GI50 [27]: > 100 µM and 14.4 µM
TGI [27]: > 100 µM
TGI [56]: > 100 µM
TGI [28]: > 100 µM
TGI [29]: > 100 µM
TGI [30]: > 100 µM
TGI [31]: > 100 µM
TGI [32]: > 100 µM
GI50 [33]: > 100 µM
TGI [33]: > 100 µM
TGI [34]: > 100 µM
TGI [35]: > 100 µM
TGI [36]: > 100 µM
TGI [37]: > 100 µM
TGI [38]: > 100 µM
TGI [39]: > 100 µM
TGI [40]: > 100 µM
TGI [41]: > 100 µM
TGI [42]: > 100 µM
TGI [43]: > 100 µM
TGI [57]: > 100 µM
TGI [44]: > 100 µM
TGI [45]: > 100 µM
GI50 [46]: > 100 µM
TGI [46]: > 100 µM
TGI [47]: > 100 µM
TGI [48]: > 100 µM
TGI [49]: > 100 µM
TGI [50]: > 100 µM
TGI [51]: > 100 µM
TGI [52]: > 100 µM
TGI [53]: > 100 µM
TGI [54]: > 100 µM
